Experimental data: PubChem BioAssay AID1845211 (Molecular Pharmacology Branch, DTP, NCI, 2023)

Tested on: NCI-H322M multicellular tumor spheroids, viability (% test/control)
Experiment: Anticancer human tumor NCI-H322M cell line growth inhibition;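 on viability, T/C: spheroids exposed to compound for seven days before readout; 100% = DMSO vehicle control wells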
Details: for IC50: curve of first compound; for viability, T/C: stronger effect = lower value
Summary of the method: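 Complex tumor spheroids combined malignant cells with endothelial cells and mesenchymal stem cells. DNA-damaging drugs and DNA repair inhibitors were tested alone and in combination, at half-log dilutions down from clinical Cmax (top 10 microM if Cmax unknown), 0.25% DMSO final.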

[1] = second compound 30 pM, first compound 0.00949 µM
[2] = second compound 30 pM, first compound 0.03 µM
[3] = second compound 30 pM, first compound 0.0949 µM
[4] = second compound 30 pM, first compound 0.3 µM
[5] = second compound 30 pM, first compound 0.949 µM
[6] = second compound 30 pM, first compound 3 µM
[7] = second compound 94.9 pM, first compound 0.00949 µM
[8] = second compound 94.9 pM, first compound 0.03 µM
[9] = second compound 94.9 pM, first compound 0.0949 µM
[10] = second compound 94.9 pM, first compound 0.3 µM
[11] = second compound 94.9 pM, first compound 0.949 µM
[12] = second compound 94.9 pM, first compound 3 µM
[13] = second compound 0.0003 µM, first compound 0.00949 µM
[14] = second compound 0.0003 µM, first compound 0.03 µM
[15] = second compound 0.0003 µM, first compound 0.0949 µM
[16] = second compound 0.0003 µM, first compound 0.3 µM
[17] = second compound 0.0003 µM, first compound 0.949 µM
[18] = second compound 0.0003 µM, first compound 3 µM
[19] = second compound 0.000949 µM, first compound 0.00949 µM
[20] = second compound 0.000949 µM, first compound 0.03 µM
[21] = second compound 0.000949 µM, first compound 0.0949 µM
[22] = second compound 0.000949 µM, first compound 0.3 µM
[23] = second compound 0.000949 µM, first compound 0.949 µM
[24] = second compound 0.000949 µM, first compound 3 µM
[25] = second compound 0.003 µM, first compound 0.00949 µM
[26] = second compound 0.003 µM, first compound 0.03 µM
[27] = second compound 0.003 µM, first compound 0.0949 µM
[28] = second compound 0.003 µM, first compound 0.3 µM
[29] = second compound 0.003 µM, first compound 0.949 µM
[30] = second compound 0.003 µM, first compound 3 µM
[31] = second compound 30 pM, first compound 0.0316 µM
[32] = second compound 30 pM, first compound 0.1 µM
[33] = second compound 30 pM, first compound 0.316 µM
[34] = second compound 30 pM, first compound 1 µM
[35] = second compound 30 pM, first compound 3.16 µM
[36] = second compound 30 pM, first compound 10 µM
[37] = second compound 94.9 pM, first compound 0.0316 µM
[38] = second compound 94.9 pM, first compound 0.1 µM
[39] = second compound 94.9 pM, first compound 0.316 µM
[40] = second compound 94.9 pM, first compound 1 µM
[41] = second compound 94.9 pM, first compound 3.16 µM
[42] = second compound 94.9 pM, first compound 10 µM
[43] = second compound 0.0003 µM, first compound 0.0316 µM
[44] = second compound 0.0003 µM, first compound 0.1 µM
[45] = second compound 0.0003 µM, first compound 0.316 µM
[46] = second compound 0.0003 µM, first compound 1 µM
[47] = second compound 0.0003 µM, first compound 3.16 µM
[48] = second compound 0.0003 µM, first compound 10 µM
[49] = second compound 0.000949 µM, first compound 0.0316 µM
[50] = second compound 0.000949 µM, first compound 0.1 µM
[51] = second compound 0.000949 µM, first compound 0.316 µM
[52] = second compound 0.000949 µM, first compound 1 µM
[53] = second compound 0.000949 µM, first compound 3.16 µM
[54] = second compound 0.000949 µM, first compound 10 µM
[55] = second compound 0.003 µM, first compound 0.0316 µM
[56] = second compound 0.003 µM, first compound 0.1 µM
[57] = second compound 0.003 µM, first compound 0.316 µM
[58] = second compound 0.003 µM, first compound 1 µM
[59] = second compound 0.003 µM, first compound 3.16 µM
[60] = second compound 0.003 µM, first compound 10 µM

## CNCc1ccc(-c2cc(-c3nc(-c4ccc(S(=O)(=O)C(C)C)cc4)cnc3N)on2)cc1 + COc1cc2c(cc1O)CCNC21CSC2c3c(OC(C)=O)c(C)c4c(c3C(COC1=O)N1C(O)C3Cc5cc(C)c(OC)c(O)c5C(C21)N3C)OCO4
Second compound 30 pM
  IC50: > 3 µM
Second compound 94.9 pM
  IC50: > 3 µM
Second compound 0.0003 µM
  IC50: > 3 µM
Second compound 0.000949 µM
  IC50: 0.479 µM
Second compound 0.003 µM
  IC50: < 0.00949 µM
[1]
  viability, T/C: 98.7%
[2]
  viability, T/C: 102%
[3]
  viability, T/C: 82.5%
[4]
  viability, T/C: 76.4%
[5]
  viability, T/C: 69.5%
[6]
  viability, T/C: 70%
[7]
  viability, T/C: 95.5%
[8]
  viability, T/C: 80.2%
[9]
  viability, T/C: 85.6%
[10]
  viability, T/C: 73.4%
[11]
  viability, T/C: 66.4%
[12]
  viability, T/C: 66.1%
[13]
  viability, T/C: 85.7%
[14]
  viability, T/C: 85.8%
[15]
  viability, T/C: 77.8%
[16]
  viability, T/C: 60.5%
[17]
  viability, T/C: 59.4%
[18]
  viability, T/C: 59.2%
[19]
  viability, T/C: 81.9%
[20]
  viability, T/C: 76.9%
[21]
  viability, T/C: 71.4%
[22]
  viability, T/C: 51.9%
[23]
  viability, T/C: 47.3%
[24]
  viability, T/C: 44.4%
[25]
  viability, T/C: 9.27%
[26]
  viability, T/C: 10.9%
[27]
  viability, T/C: 10.1%
[28]
  viability, T/C: 9.72%
[29]
  viability, T/C: 12.4%
[30]
  viability, T/C: 7.67%

## COc1cc(C)[nH]c(=O)c1CN1CCc2c(Cl)cc(C(OC)C3COC3)c(Cl)c2C1=O (stereo not given) + COc1cc2c(cc1O)CCNC21CSC2c3c(OC(C)=O)c(C)c4c(c3C(COC1=O)N1C(O)C3Cc5cc(C)c(OC)c(O)c5C(C21)N3C)OCO4
Second compound 30 pM
  IC50: > 10 µM
Second compound 94.9 pM
  IC50: > 10 µM
Second compound 0.0003 µM
  IC50: > 10 µM
Second compound 0.000949 µM
  IC50: > 10 µM
Second compound 0.003 µM
  IC50: < 0.0316 µM
[31]
  viability, T/C: 75.3%
[32]
  viability, T/C: 82.3%
[33]
  viability, T/C: 80.6%
[34]
  viability, T/C: 84%
[35]
  viability, T/C: 84.4%
[36]
  viability, T/C: 91.7%
[37]
  viability, T/C: 92.6%
[38]
  viability, T/C: 77.5%
[39]
  viability, T/C: 83.3%
[40]
  viability, T/C: 81%
[41]
  viability, T/C: 81.4%
[42]
  viability, T/C: 84.1%
[43]
  viability, T/C: 78.7%
[44]
  viability, T/C: 94.2%
[45]
  viability, T/C: 79%
[46]
  viability, T/C: 83.4%
[47]
  viability, T/C: 97.6%
[48]
  viability, T/C: 87.2%
[49]
  viability, T/C: 81.8%
[50]
  viability, T/C: 82.2%
[51]
  viability, T/C: 82.8%
[52]
  viability, T/C: 78.8%
[53]
  viability, T/C: 74.7%
[54]
  viability, T/C: 79.5%
[55]
  viability, T/C: 6.18%
[56]
  viability, T/C: 10.3%
[57]
  viability, T/C: 6.44%
[58]
  viability, T/C: 7.13%
[59]
  viability, T/C: 4.79%
[60]
  viability, T/C: 5.29%

## Cc1cc(C)c(CNC(=O)c2cc(-c3ccc(CN4CCOCC4)cc3)cc3c2cnn3C2CCCC2)c(=O)[nH]1 + COc1cc2c(cc1O)CCNC21CSC2c3c(OC(C)=O)c(C)c4c(c3C(COC1=O)N1C(O)C3Cc5cc(C)c(OC)c(O)c5C(C21)N3C)OCO4
Second compound 30 pM
  IC50: > 10 µM
Second compound 94.9 pM
  IC50: > 10 µM
Second compound 0.0003 µM
  IC50: > 10 µM
Second compound 0.000949 µM
  IC50: > 10 µM
Second compound 0.003 µM
  IC50: < 0.0316 µM
[31]
  viability, T/C: 84.6%
[32]
  viability, T/C: 97.8%
[33]
  viability, T/C: 87.1%
[34]
  viability, T/C: 97.9%
[35]
  viability, T/C: 99.6%
[36]
  viability, T/C: 114%
[37]
  viability, T/C: 92.8%
[38]
  viability, T/C: 90.9%
[39]
  viability, T/C: 92%
[40]
  viability, T/C: 84.4%
[41]
  viability, T/C: 89.5%
[42]
  viability, T/C: 130%
[43]
  viability, T/C: 96.6%
[44]
  viability, T/C: 98.1%
[45]
  viability, T/C: 98.2%
[46]
  viability, T/C: 95.3%
[47]
  viability, T/C: 108%
[48]
  viability, T/C: 126%
[49]
  viability, T/C: 92.4%
[50]
  viability, T/C: 92.2%
[51]
  viability, T/C: 87.9%
[52]
  viability, T/C: 96.2%
[53]
  viability, T/C: 82%
[54]
  viability, T/C: 97.8%
[55]
  viability, T/C: 17.8%
[56]
  viability, T/C: 8.17%
[57]
  viability, T/C: 12.3%
[58]
  viability, T/C: 6.05%
[59]
  viability, T/C: 2.7%
[60]
  viability, T/C: 3.51%

## Cc1sc2c(c1C)C(c1ccc(Cl)cc1)=NC(CC(=O)Nc1ccc(O)cc1)c1nnc(C)n1-2 (stereo not given) + COc1cc2c(cc1O)CCNC21CSC2c3c(OC(C)=O)c(C)c4c(c3C(COC1=O)N1C(O)C3Cc5cc(C)c(OC)c(O)c5C(C21)N3C)OCO4
Second compound 30 pM
  IC50: > 3 µM
Second compound 94.9 pM
  IC50: > 3 µM
Second compound 0.0003 µM
  IC50: 1.59 µM
Second compound 0.000949 µM
  IC50: 0.333 µM
Second compound 0.003 µM
  IC50: < 0.00949 µM
[1]
  viability, T/C: 113%
[2]
  viability, T/C: 118%
[3]
  viability, T/C: 136%
[4]
  viability, T/C: 112%
[5]
  viability, T/C: 74%
[6]
  viability, T/C: 60.1%
[7]
  viability, T/C: 104%
[8]
  viability, T/C: 112%
[9]
  viability, T/C: 123%
[10]
  viability, T/C: 110%
[11]
  viability, T/C: 72.5%
[12]
  viability, T/C: 53.6%
[13]
  viability, T/C: 117%
[14]
  viability, T/C: 133%
[15]
  viability, T/C: 133%
[16]
  viability, T/C: 119%
[17]
  viability, T/C: 63.9%
[18]
  viability, T/C: 33.1%
[19]
  viability, T/C: 127%
[20]
  viability, T/C: 87.6%
[21]
  viability, T/C: 80.7%
[22]
  viability, T/C: 60.2%
[23]
  viability, T/C: 19.5%
[24]
  viability, T/C: 11.9%
[25]
  viability, T/C: 9.9%
[26]
  viability, T/C: 6.99%
[27]
  viability, T/C: 6.13%
[28]
  viability, T/C: 2.83%
[29]
  viability, T/C: 1.47%
[30]
  viability, T/C: 1.17%

## [2H]c1nc(C)nc([2H])c1-c1cc(NC[C@@H](C)c2cccc3c(C(=O)NC)ccnc23)ncn1 + COc1cc2c(cc1O)CCNC21CSC2c3c(OC(C)=O)c(C)c4c(c3C(COC1=O)N1C(O)C3Cc5cc(C)c(OC)c(O)c5C(C21)N3C)OCO4
Second compound 30 pM
  IC50: > 10 µM
Second compound 94.9 pM
  IC50: > 10 µM
Second compound 0.0003 µM
  IC50: > 10 µM
Second compound 0.000949 µM
  IC50: > 10 µM
Second compound 0.003 µM
  IC50: < 0.0316 µM
[31]
  viability, T/C: 80.4%
[32]
  viability, T/C: 89.1%
[33]
  viability, T/C: 85.6%
[34]
  viability, T/C: 84.7%
[35]
  viability, T/C: 75.2%
[36]
  viability, T/C: 90.2%
[37]
  viability, T/C: 81.3%
[38]
  viability, T/C: 76.7%
[39]
  viability, T/C: 92.1%
[40]
  viability, T/C: 90.1%
[41]
  viability, T/C: 85.7%
[42]
  viability, T/C: 94.9%
[43]
  viability, T/C: 89%
[44]
  viability, T/C: 78.9%
[45]
  viability, T/C: 90.5%
[46]
  viability, T/C: 84.2%
[47]
  viability, T/C: 94.9%
[48]
  viability, T/C: 93.3%
[49]
  viability, T/C: 81%
[50]
  viability, T/C: 79.3%
[51]
  viability, T/C: 84%
[52]
  viability, T/C: 82%
[53]
  viability, T/C: 76%
[54]
  viability, T/C: 75.8%
[55]
  viability, T/C: 15.8%
[56]
  viability, T/C: 12.2%
[57]
  viability, T/C: 10.5%
[58]
  viability, T/C: 10.9%
[59]
  viability, T/C: 8.62%
[60]
  viability, T/C: 5.55%
